Results taken from patent publication US10344060B2 (priority 2013, dated 2019).

Key:
[1] = target: hNav1.4 (Homo sapiens, UniProt P35499); assay: cell-based; type: cell-based; settings: Table 12; ratio of PX tonic IC50 values
[2] = target: hNav1.5 (Homo sapiens, UniProt Q14524); assay: cell-based; settings: Table 12; ratio of PX tonic IC50 values
hNav1.5, sequence (Q14524 whole entry): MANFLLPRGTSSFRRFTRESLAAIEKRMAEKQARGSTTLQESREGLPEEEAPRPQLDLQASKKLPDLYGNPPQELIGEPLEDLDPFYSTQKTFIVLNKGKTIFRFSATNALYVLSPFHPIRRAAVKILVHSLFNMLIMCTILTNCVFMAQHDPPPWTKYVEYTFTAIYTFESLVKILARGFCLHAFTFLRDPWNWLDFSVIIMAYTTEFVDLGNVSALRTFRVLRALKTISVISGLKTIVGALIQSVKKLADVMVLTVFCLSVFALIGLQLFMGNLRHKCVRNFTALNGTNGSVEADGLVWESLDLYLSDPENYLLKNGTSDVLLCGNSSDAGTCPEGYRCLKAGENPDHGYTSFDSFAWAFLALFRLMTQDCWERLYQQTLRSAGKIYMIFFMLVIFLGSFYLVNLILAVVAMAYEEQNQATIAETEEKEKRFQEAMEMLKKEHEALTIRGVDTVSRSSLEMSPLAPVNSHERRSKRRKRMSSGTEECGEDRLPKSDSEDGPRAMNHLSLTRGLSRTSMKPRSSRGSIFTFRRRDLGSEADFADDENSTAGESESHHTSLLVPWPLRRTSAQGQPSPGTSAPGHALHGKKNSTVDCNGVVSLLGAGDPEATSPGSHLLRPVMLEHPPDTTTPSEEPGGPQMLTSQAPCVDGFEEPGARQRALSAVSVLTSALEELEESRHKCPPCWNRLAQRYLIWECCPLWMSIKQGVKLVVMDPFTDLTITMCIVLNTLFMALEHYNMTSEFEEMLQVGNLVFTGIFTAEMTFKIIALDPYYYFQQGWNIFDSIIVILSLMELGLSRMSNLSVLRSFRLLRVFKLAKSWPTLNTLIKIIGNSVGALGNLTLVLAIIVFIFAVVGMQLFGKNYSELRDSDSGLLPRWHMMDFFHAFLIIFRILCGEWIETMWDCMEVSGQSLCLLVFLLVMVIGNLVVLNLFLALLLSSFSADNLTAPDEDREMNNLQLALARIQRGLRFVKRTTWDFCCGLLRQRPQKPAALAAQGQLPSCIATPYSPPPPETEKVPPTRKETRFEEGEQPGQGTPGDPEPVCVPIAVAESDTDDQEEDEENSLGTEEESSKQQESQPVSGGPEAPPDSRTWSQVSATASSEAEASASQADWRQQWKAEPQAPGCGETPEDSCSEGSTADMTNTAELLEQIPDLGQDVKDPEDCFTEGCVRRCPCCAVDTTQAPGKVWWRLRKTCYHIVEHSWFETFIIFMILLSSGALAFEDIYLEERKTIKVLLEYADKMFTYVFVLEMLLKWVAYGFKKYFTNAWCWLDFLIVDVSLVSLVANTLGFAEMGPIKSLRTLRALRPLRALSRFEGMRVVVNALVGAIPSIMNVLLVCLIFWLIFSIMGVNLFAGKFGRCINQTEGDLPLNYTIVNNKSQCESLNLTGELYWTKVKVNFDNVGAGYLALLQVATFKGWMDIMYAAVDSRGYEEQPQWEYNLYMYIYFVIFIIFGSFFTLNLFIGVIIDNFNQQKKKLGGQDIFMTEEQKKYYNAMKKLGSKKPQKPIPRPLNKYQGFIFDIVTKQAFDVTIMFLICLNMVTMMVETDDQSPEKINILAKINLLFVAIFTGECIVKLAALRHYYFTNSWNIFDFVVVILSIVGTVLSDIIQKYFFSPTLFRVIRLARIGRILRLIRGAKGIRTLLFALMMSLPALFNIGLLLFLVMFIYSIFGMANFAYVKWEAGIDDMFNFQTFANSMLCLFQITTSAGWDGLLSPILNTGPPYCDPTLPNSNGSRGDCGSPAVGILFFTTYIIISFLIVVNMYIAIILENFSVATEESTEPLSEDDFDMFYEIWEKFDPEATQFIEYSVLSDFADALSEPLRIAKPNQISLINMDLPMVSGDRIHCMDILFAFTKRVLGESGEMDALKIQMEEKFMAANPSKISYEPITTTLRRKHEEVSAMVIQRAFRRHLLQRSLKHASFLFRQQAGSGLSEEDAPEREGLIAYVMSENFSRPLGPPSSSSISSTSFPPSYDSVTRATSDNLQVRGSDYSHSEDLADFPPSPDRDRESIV

hNav1.4, sequence (P35499 whole entry): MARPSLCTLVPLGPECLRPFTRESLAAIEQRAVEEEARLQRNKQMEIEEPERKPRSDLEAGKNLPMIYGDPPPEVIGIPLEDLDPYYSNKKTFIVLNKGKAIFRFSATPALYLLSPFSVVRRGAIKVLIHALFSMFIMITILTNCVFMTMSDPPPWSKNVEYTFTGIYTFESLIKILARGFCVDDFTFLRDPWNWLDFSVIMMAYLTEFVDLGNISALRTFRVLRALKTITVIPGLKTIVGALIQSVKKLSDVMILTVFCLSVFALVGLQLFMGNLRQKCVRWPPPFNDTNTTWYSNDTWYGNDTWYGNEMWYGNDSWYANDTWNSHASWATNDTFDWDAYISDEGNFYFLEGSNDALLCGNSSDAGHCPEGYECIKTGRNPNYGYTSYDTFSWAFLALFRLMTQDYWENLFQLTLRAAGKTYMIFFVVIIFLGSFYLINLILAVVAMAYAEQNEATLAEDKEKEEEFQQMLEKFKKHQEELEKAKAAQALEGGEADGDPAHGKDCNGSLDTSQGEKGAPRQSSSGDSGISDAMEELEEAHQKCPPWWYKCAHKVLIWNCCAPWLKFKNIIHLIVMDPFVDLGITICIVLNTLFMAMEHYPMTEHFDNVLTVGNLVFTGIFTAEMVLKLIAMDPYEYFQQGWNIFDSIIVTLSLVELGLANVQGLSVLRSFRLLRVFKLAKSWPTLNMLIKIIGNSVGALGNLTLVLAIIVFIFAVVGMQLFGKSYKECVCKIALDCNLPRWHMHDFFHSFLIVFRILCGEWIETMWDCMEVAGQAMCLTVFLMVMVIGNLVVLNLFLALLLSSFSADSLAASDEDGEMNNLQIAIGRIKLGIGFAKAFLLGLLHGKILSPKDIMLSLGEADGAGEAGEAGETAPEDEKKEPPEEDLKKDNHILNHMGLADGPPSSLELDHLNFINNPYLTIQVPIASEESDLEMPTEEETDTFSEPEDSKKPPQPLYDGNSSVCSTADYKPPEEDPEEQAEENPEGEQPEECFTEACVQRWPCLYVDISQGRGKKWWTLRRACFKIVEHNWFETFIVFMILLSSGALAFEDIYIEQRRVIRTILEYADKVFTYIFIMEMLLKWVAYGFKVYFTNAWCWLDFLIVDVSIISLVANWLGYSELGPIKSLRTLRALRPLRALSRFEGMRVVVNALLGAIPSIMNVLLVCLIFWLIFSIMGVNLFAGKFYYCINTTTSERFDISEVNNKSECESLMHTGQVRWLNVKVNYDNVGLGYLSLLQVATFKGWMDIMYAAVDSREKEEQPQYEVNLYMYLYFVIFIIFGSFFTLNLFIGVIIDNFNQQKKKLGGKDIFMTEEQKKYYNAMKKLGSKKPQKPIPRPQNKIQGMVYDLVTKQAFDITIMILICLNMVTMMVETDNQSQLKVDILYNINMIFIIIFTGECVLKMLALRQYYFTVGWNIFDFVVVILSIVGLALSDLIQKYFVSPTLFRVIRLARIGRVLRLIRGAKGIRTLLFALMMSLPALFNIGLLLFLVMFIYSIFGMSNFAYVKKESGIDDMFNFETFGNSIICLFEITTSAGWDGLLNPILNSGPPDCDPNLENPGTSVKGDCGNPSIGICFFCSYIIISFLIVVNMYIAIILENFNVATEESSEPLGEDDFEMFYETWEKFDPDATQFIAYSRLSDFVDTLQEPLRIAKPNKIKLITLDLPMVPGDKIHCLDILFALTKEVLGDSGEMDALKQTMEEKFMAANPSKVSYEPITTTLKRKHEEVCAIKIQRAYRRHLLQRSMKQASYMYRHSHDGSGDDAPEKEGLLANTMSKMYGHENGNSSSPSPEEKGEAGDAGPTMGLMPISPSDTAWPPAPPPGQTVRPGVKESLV

SMILES	Nav1.4/Nav1.7 [1]	Nav1.5/Nav1.7 [2]
C#CC[C@@H]1NC(=O)[C@H](CCCNC(=N)N)NC(=O)[C@H](CCCCN)NC(=O)[C@H](CO)NC(=O)[C@H](CC(=O)O)NC(=O)[C@@H]2CSSC[C@@H]3NC(=O)[C@H](CCC(=O)O)NC(=O)[C@H](CC(C)C)NC(=O)CNC(=O)[C@H](CCC(=O)O)NC(=O)[C@H](CSSC[C@H](NC(=O)[C@@H](N)Cc4ccc(O)cc4)C(=O)N[C@@H](CCC(N)=O)C(=O)N[C@@H](CCCCN)C(=O)N[C@@H](Cc4c[nH]c5ccccc45)C(=O)N[C@@H](CCCC)C(=O)N[C@@H](Cc4c[nH]c5ccccc45)C(=O)N[C@@H]([C@@H](C)O)C(=O)N2)NC(=O)[C@H](CSSC[C@@H](C(=O)N[C@@H](CCCNC(=N)N)C(=O)N[C@@H](CCCCN)C(=O)N[C@@H](Cc2ccc(O)cc2)C(=O)N[C@H](C(N)=O)[C@@H](C)CC)NC(=O)[C@H](Cc2c[nH]c4ccccc24)NC(=O)[C@H](CC(C)C)NC(=O)[C@H](CCCCN)NC3=O)NC1=O [compound 316]	402	2099
C#CC[C@@H]1NC(=O)[C@@H]2CSSC[C@H](NC(=O)[C@@H](N)Cc3ccc(O)cc3)C(=O)N[C@@H](CCC(N)=O)C(=O)N[C@@H](CCCCN)C(=O)N[C@@H](Cc3c[nH]c4ccccc34)C(=O)N[C@@H](CCCC)C(=O)N[C@@H](Cc3c[nH]c4ccccc34)C(=O)N[C@@H]([C@@H](C)O)C(=O)N[C@H]3CSSC[C@H](NC(=O)[C@H](CCC(=O)O)NC(=O)[C@H](CC(C)C)NC(=O)CNC1=O)C(=O)N[C@@H](CCCCN)C(=O)N[C@@H](CC(C)C)C(=O)N[C@@H](Cc1c[nH]c4ccccc14)C(=O)N[C@H](C(=O)N[C@@H](CCCNC(=N)N)C(=O)N[C@@H](CCCCN)C(=O)N[C@H](C(=O)N[C@H](C(N)=O)[C@@H](C)CC)[C@@H](C)CC)CSSC[C@H](NC(=O)[C@H](C)NC(=O)[C@H](CCCNC(=N)N)NC(=O)[C@H](CCCCN)NC(=O)[C@H](CO)NC(=O)[C@H](CC(=O)O)NC3=O)C(=O)N2 [compound 346]	29	102
C#CC[C@@H]1NC(=O)[C@H](CCCNC(=N)N)NC(=O)[C@H](CCCCN)NC(=O)[C@H](CO)NC(=O)[C@H](CC(=O)O)NC(=O)[C@@H]2CSSC[C@@H]3NC(=O)[C@H](CCC(=O)O)NC(=O)[C@H](CC(C)C)NC(=O)CNC(=O)[C@H](CCC(=O)O)NC(=O)[C@H](CSSC[C@H](NC(=O)[C@@H](N)Cc4ccc(O)cc4)C(=O)N[C@@H](CCC(N)=O)C(=O)N[C@@H](CCCCN)C(=O)N[C@@H](Cc4c[nH]c5ccccc45)C(=O)N[C@@H](CCCC)C(=O)N[C@@H](Cc4c[nH]c5ccccc45)C(=O)N[C@@H]([C@@H](C)O)C(=O)N2)NC(=O)[C@H](CSSC[C@@H](C(=O)N[C@@H](CCCNC(=N)N)C(=O)N[C@@H](CCCCN)C(=O)N[C@H](C(=O)N[C@H](C(N)=O)[C@@H](C)CC)[C@@H](C)CC)NC(=O)[C@H](Cc2c[nH]c4ccccc24)NC(=O)[C@H](CC(C)C)NC(=O)[C@H](CCCCN)NC3=O)NC1=O [compound 345]	232	638
C#CC[C@H](N)C(=O)N[C@H]1CSSC[C@@H]2NC(=O)[C@@H]3CSSC[C@@H](C(=O)N[C@@H](CCCNC(=N)N)C(=O)N[C@@H](CCCCN)C(=O)N[C@H](C(=O)N[C@H](C(N)=O)[C@@H](C)CC)[C@@H](C)CC)NC(=O)[C@H](Cc4c[nH]c5ccccc45)NC(=O)[C@H](CC(C)C)NC(=O)[C@H](CCCCN)NC(=O)[C@H](CSSC[C@H](NC(=O)[C@H]([C@@H](C)O)NC(=O)[C@H](Cc4c[nH]c5ccccc45)NC(=O)[C@H](CCCC)NC(=O)[C@H](Cc4c[nH]c5ccccc45)NC(=O)[C@H](CCCCN)NC(=O)[C@H](CCC(N)=O)NC1=O)C(=O)N[C@@H](CC(=O)O)C(=O)N[C@@H](CO)C(=O)N[C@@H](CCCCN)C(=O)N[C@@H](CCCNC(=N)N)C(=O)N[C@@H](C)C(=O)N3)NC(=O)[C@H](CCC(=O)O)NC(=O)[C@H](CC(C)C)NC(=O)CNC(=O)[C@H](CCC(=O)O)NC2=O [compound 343]	300	1011
CCCC[C@@H]1NC(=O)[C@H](Cc2c[nH]c3ccccc23)NC(=O)[C@H](CCCCN)NC(=O)[C@H](CCC(N)=O)NC(=O)[C@@H](NC(=O)[C@@H](N)Cc2ccc(O)cc2)CSSC[C@@H]2NC(=O)[C@@H]3CSSC[C@@H](C(=O)N[C@@H](CCCNC(=N)N)C(=O)N[C@@H](CCCCN)C(=O)N[C@H](C(=O)N[C@@H](Cc4c[nH]c5ccccc45)C(N)=O)[C@@H](C)CC)NC(=O)[C@H](Cc4c[nH]c5ccccc45)NC(=O)[C@H](CC(C)C)NC(=O)[C@H](CCCCN)NC(=O)[C@H](CSSC[C@H](NC(=O)[C@H]([C@@H](C)O)NC(=O)[C@H](Cc4c[nH]c5ccccc45)NC1=O)C(=O)N[C@@H](CC(=O)O)C(=O)N[C@@H](CO)C(=O)N[C@@H](CCCCN)C(=O)N[C@@H](CCCNC(=N)N)C(=O)N[C@@H](CCCCN=[N+]=[N-])C(=O)N3)NC(=O)[C@H](CCC(=O)O)NC(=O)[C@H](CC(C)C)NC(=O)CNC(=O)[C@H](CCC(=O)O)NC2=O [compound 306]	550	1712
C#CC[C@@H]1NC(=O)[C@H](CCCNC(=N)N)NC(=O)[C@H](CCCCN)NC(=O)[C@H](CO)NC(=O)[C@H](CC(=O)O)NC(=O)[C@@H]2CSSC[C@@H]3NC(=O)[C@H](CCCNC(=N)N)NC(=O)[C@H](CC(C)C)NC(=O)CNC(=O)[C@H](CCC(=O)O)NC(=O)[C@H](CSSC[C@H](NC(=O)[C@@H](N)Cc4ccc(O)cc4)C(=O)N[C@@H](CCC(N)=O)C(=O)N[C@@H](CCCCN)C(=O)N[C@@H](Cc4c[nH]c5ccccc45)C(=O)N[C@@H](CCCC)C(=O)N[C@@H](Cc4c[nH]c5ccccc45)C(=O)N[C@@H]([C@@H](C)O)C(=O)N2)NC(=O)[C@H](CSSC[C@@H](C(=O)N[C@@H](CCCNC(=N)N)C(=O)N[C@@H](CCCCN)C(=O)N[C@@H](CCC(=O)O)C(=O)N[C@H](C(N)=O)[C@@H](C)CC)NC(=O)[C@H](Cc2c[nH]c4ccccc24)NC(=O)[C@H](CC(C)C)NC(=O)[C@H](CCCCN)NC3=O)NC1=O [compound 331]	213	7119
C#CC[C@@H]1NC(=O)[C@@H]2CSSC[C@H](NC(=O)[C@@H](N)Cc3ccc(O)cc3)C(=O)N[C@@H](CCC(N)=O)C(=O)N[C@@H](CCCCN)C(=O)N[C@@H](Cc3c[nH]c4ccccc34)C(=O)N[C@@H](CCCC)C(=O)N[C@@H](Cc3c[nH]c4ccccc34)C(=O)N[C@@H]([C@@H](C)O)C(=O)N[C@H]3CSSC[C@H](NC(=O)[C@H](CCCNC(=N)N)NC(=O)[C@H](CC(C)C)NC(=O)CNC1=O)C(=O)N[C@@H](CCCCN)C(=O)N[C@@H](CC(C)C)C(=O)N[C@@H](Cc1c[nH]c4ccccc14)C(=O)N[C@H](C(=O)N[C@@H](CCCNC(=N)N)C(=O)N[C@@H](CCCCN)C(=O)N[C@@H](CCC(=O)O)C(=O)N[C@H](C(N)=O)[C@@H](C)CC)CSSC[C@H](NC(=O)[C@H](C)NC(=O)[C@H](CCCNC(=N)N)NC(=O)[C@H](CCCCN)NC(=O)[C@H](CO)NC(=O)[C@H](CC(=O)O)NC3=O)C(=O)N2 [compound 332]	34	849
C#CC[C@H](N)C(=O)N[C@@H](Cc1ccc(O)cc1)C(=O)N[C@H]1CSSC[C@@H]2NC(=O)[C@@H]3CSSC[C@@H](C(=O)N[C@@H](CCCNC(=N)N)C(=O)N[C@@H](CCCCN)C(=O)N[C@H](C(=O)N[C@@H](Cc4c[nH]c5ccccc45)C(N)=O)[C@@H](C)CC)NC(=O)[C@H](Cc4c[nH]c5ccccc45)NC(=O)[C@H](CC(C)C)NC(=O)[C@H](CCCCN)NC(=O)[C@H](CSSC[C@H](NC(=O)[C@H]([C@@H](C)O)NC(=O)[C@H](Cc4c[nH]c5ccccc45)NC(=O)[C@H](CCC)NC(=O)[C@H](Cc4c[nH]c5ccccc45)NC(=O)[C@H](CCCCN)NC(=O)[C@H](CCC(N)=O)NC1=O)C(=O)N[C@@H](CC(=O)O)C(=O)N[C@@H](CO)C(=O)N[C@@H](CCCCN)C(=O)N[C@@H](CCCNC(=N)N)C(=O)N[C@@H](C)C(=O)N3)NC(=O)[C@H](CCC(=O)O)NC(=O)[C@H](CC(C)C)NC(=O)CNC(=O)[C@H](CCC(=O)O)NC2=O [compound 300]	1183	6483
C#CC[C@H](N)C(=O)N[C@H]1CSSC[C@@H]2NC(=O)[C@@H]3CSSC[C@@H](C(=O)N[C@@H](CCCNC(=N)N)C(=O)N[C@@H](CCCCN)C(=O)N[C@@H](CCC(=O)O)C(=O)N[C@H](C(N)=O)[C@@H](C)CC)NC(=O)[C@H](Cc4c[nH]c5ccccc45)NC(=O)[C@H](CC(C)C)NC(=O)[C@H](CCCCN)NC(=O)[C@H](CSSC[C@H](NC(=O)[C@H]([C@@H](C)O)NC(=O)[C@H](Cc4c[nH]c5ccccc45)NC(=O)[C@H](CCCC)NC(=O)[C@H](Cc4c[nH]c5ccccc45)NC(=O)[C@H](CCCCN)NC(=O)[C@H](CCC(N)=O)NC1=O)C(=O)N[C@@H](CC(=O)O)C(=O)N[C@@H](CO)C(=O)N[C@@H](CCCCN)C(=O)N[C@@H](CCCNC(=N)N)C(=O)N[C@@H](C)C(=O)N3)NC(=O)[C@H](CCCNC(=N)N)NC(=O)[C@H](CC(C)C)NC(=O)CNC(=O)[C@H](CCC(=O)O)NC2=O [compound 329]	555	17167
CCCC[C@@H]1NC(=O)[C@H](Cc2c[nH]c3ccccc23)NC(=O)[C@H](CCCCN)NC(=O)[C@H](CCC(N)=O)NC(=O)[C@@H](NC(=O)[C@@H](N)CCN=[N+]=[N-])CSSC[C@@H]2NC(=O)[C@@H]3CSSC[C@@H](C(=O)N[C@@H](CCCNC(=N)N)C(=O)N[C@@H](CCCCN)C(=O)N[C@H](C(=O)N[C@@H](Cc4c[nH]c5ccccc45)C(N)=O)[C@@H](C)CC)NC(=O)[C@H](Cc4c[nH]c5ccccc45)NC(=O)[C@H](CC(C)C)NC(=O)[C@H](CCCCN)NC(=O)[C@H](CSSC[C@H](NC(=O)[C@H]([C@@H](C)O)NC(=O)[C@H](Cc4c[nH]c5ccccc45)NC1=O)C(=O)N[C@@H](CC(=O)O)C(=O)N[C@@H](CO)C(=O)N[C@@H](CCCCN)C(=O)N[C@@H](CCCNC(=N)N)C(=O)N[C@@H](C)C(=O)N3)NC(=O)[C@H](CCC(=O)O)NC(=O)[C@H](CC(C)C)NC(=O)CNC(=O)[C@H](CCC(=O)O)NC2=O [compound 309]	239	634
